According to ChEMBL document CHEMBL3286108, “Novel arylsulfonamide derivatives with 5-HT₆/5-HT₇ receptor antagonism targeting behavioral and psychological symptoms of dementia” (J Med Chem, 2014):
Calls of active or inactive are those of the source. No cut-off for these calls is given here.

Legend:
D(2) dopamine receptor [1] = biological target: T1, D(2) dopamine receptor (Homo sapiens, UniProt P14416); assay: Agonist activity at human recombinant D2 receptor expressed in CHO-K1 cells by luminescence analysis; type: cell-based
T1 sequence (P14416 whole entry): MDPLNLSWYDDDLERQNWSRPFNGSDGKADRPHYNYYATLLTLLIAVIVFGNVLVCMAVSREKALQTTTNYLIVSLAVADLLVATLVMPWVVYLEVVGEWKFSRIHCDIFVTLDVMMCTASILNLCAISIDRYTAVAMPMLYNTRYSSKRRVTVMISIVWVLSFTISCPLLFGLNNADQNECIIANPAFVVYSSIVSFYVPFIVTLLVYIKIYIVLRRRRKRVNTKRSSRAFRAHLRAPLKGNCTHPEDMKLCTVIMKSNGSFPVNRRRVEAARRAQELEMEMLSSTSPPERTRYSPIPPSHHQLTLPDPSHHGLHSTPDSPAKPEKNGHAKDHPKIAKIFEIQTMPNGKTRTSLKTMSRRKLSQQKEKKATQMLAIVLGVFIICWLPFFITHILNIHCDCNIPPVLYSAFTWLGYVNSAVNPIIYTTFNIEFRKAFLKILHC

[2] = biological target: T2, 5-hydroxytryptamine receptor 7 (Homo sapiens, UniProt P34969); assay: Agonist activity at human 5-HT7 receptor expressed in CHO-K1 cells assessed as cAMP accumulation after 60 mins by TR-FRET immunoassay; type: functional, cell-based
T2 sequence (P34969 whole entry): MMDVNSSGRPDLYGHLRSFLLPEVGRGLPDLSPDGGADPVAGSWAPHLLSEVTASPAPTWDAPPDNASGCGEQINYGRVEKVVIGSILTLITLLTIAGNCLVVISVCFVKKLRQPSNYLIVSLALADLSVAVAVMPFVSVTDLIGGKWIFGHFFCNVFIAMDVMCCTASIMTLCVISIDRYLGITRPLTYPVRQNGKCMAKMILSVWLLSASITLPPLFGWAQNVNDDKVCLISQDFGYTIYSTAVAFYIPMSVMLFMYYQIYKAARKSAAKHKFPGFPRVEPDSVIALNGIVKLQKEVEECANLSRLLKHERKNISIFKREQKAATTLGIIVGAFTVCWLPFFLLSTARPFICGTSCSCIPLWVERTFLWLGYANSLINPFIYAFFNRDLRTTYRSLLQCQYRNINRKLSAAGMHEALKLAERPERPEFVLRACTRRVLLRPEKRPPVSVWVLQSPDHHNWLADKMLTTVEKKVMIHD

[3] = biological target: T3, 5-hydroxytryptamine receptor 6 (Homo sapiens, UniProt P50406); assay: biochemical
T3 sequence (P50406 whole entry): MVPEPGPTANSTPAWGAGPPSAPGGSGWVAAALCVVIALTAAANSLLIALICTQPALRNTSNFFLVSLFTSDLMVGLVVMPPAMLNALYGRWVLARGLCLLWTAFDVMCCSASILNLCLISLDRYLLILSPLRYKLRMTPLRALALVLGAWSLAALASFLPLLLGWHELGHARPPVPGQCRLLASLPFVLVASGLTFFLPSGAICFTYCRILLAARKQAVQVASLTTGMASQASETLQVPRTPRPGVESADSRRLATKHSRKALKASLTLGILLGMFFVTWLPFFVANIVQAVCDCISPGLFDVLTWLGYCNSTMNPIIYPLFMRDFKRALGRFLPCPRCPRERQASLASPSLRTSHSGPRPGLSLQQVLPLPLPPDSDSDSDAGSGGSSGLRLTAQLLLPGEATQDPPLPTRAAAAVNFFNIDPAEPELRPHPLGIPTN

[4] = biological target: hERG (KCNH2) potassium channel (Homo sapiens, UniProt Q12809); assay: in vitro; settings: CHO cells expressing human cloned ERG
Sequence of hERG (KCNH2) potassium channel (Q12809 whole entry): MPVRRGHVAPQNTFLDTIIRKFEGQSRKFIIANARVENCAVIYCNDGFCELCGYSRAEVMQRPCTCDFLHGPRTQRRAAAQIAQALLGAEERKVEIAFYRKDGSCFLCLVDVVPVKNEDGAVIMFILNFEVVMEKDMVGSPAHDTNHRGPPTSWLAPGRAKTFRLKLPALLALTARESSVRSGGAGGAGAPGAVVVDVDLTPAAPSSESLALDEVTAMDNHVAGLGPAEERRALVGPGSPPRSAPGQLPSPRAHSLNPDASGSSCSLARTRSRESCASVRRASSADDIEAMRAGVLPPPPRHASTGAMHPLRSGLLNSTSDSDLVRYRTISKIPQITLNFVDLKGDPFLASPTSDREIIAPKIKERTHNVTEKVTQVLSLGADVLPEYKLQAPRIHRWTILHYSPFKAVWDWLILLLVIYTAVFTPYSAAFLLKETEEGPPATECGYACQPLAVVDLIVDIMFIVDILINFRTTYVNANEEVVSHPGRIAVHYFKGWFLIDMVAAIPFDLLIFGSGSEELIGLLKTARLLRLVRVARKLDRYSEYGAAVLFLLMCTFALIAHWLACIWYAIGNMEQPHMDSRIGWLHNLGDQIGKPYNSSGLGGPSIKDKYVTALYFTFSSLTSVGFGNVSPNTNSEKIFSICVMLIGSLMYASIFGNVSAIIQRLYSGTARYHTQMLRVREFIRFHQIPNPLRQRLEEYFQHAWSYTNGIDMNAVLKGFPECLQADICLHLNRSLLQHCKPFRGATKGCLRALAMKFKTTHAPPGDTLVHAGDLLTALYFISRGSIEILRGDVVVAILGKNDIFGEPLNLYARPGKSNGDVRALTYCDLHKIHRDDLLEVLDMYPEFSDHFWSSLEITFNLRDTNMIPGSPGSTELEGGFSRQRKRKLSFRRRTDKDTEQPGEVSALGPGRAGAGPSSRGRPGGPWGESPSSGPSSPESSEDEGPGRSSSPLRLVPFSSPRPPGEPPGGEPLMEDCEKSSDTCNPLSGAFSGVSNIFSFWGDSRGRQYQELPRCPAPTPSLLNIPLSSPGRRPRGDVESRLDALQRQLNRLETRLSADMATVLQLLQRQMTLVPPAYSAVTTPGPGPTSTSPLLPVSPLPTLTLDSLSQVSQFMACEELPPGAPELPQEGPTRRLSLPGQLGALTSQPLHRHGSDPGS

[5] = biological target: T2, 5-hydroxytryptamine receptor 7; assay: biochemical; type: cell-based, CHO-K1
[6] = biological target: T3, 5-hydroxytryptamine receptor 6; assay: Antagonist activity at human recombinant 5-HT6 receptor expressed in CHO-K1 cells assessed as inhibition of serotonin-induced response treated 15 to 30 mins before agonist challenge by luminescence analysis; type: cell-based
[7] = biological target: T4, 5-hydroxytryptamine receptor 2A (Homo sapiens, UniProt P28223); assay: Agonist activity at human recombinant 5-HT2A receptor expressed in CHO-K1 cells by luminescence analysis; type: cell-based
T4 sequence (P28223 whole entry): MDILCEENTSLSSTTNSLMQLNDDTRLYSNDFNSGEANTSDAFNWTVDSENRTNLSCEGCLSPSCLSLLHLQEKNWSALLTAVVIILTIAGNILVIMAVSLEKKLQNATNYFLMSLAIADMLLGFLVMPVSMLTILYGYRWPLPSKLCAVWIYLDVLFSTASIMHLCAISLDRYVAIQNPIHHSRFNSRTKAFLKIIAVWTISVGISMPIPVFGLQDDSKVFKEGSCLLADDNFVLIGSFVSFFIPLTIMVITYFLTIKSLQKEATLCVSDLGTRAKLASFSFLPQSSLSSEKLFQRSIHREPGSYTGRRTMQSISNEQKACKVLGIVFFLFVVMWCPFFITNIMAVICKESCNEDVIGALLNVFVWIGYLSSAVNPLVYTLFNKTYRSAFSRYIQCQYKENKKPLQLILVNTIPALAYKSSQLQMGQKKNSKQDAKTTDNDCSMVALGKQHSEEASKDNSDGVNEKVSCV

D(2) dopamine receptor [8] = biological target: T1, D(2) dopamine receptor; assay: biochemical
[9] = biological target: T4, 5-hydroxytryptamine receptor 2A; assay: biochemical; type: cell-based, CHO-K1
[10] = biological target: T3, 5-hydroxytryptamine receptor 6; assay: Agonist activity at human recombinant 5-HT6 receptor expressed in CHO-K1 cells by luminescence analysis; type: cell-based
[11] = biological target: T5, Muscarinic acetylcholine receptor M1 (Homo sapiens) (UniProt P11229); assay: Displacement of [3H]pirenzepine from human recombinant M1 receptor expressed in CHO cells at 1 uM; type: cell-based
T5 sequence (whole entry): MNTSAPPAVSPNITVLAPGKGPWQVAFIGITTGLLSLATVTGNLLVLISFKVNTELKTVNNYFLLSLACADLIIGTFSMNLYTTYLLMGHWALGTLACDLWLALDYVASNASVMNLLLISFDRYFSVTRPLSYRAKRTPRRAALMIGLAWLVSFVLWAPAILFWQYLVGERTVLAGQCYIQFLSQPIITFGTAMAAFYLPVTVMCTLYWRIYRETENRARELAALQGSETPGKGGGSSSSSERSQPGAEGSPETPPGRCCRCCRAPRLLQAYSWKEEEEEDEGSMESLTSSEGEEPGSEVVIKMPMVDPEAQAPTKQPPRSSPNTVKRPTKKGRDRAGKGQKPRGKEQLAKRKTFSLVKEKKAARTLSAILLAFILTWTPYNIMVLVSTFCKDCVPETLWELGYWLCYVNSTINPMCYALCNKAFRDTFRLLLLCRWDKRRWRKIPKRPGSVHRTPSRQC

[12] = biological target: T4, 5-hydroxytryptamine receptor 2A; assay: Antagonist activity at human recombinant 5-HT2A receptor expressed in CHO-K1 cells assessed as inhibition of alpha-methyl serotonin-induced response treated 15 to 30 mins before agonist challenge by luminescence analysis; type: cell-based
[13] = biological target: T2, 5-hydroxytryptamine receptor 7; assay: Antagonist activity at human 5-HT7 receptor expressed in CHO-K1 cells assessed as inhibition of serotonin-induced cAMP accumulation after 60 mins by TR-FRET immunoassay; type: functional, cell-based
[14] = biological target: Muscarinic acetylcholine receptor M4 (Homo sapiens, UniProt P08173); assay: biochemical
Sequence of Muscarinic acetylcholine receptor M4 (P08173 whole entry): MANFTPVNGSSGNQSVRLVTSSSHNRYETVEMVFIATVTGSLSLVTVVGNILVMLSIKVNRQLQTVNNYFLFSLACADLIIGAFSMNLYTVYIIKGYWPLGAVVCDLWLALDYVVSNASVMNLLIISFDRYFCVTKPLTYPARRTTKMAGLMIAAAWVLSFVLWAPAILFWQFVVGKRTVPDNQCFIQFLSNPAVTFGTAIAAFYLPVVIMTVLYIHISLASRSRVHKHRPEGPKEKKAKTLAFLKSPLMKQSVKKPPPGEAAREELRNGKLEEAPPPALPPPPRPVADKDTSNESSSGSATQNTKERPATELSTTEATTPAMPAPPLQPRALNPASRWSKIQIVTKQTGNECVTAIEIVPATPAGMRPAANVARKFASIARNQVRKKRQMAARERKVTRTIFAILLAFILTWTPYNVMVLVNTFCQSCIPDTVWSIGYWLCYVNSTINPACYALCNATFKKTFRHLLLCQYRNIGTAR

[15] = biological target: Muscarinic acetylcholine receptor M5 (Homo sapiens, UniProt P08912); assay: Displacement of [3H]4-DAMP from human recombinant M5 receptor expressed in CHO cells; type: cell-based
Sequence of Muscarinic acetylcholine receptor M5 (P08912 whole entry): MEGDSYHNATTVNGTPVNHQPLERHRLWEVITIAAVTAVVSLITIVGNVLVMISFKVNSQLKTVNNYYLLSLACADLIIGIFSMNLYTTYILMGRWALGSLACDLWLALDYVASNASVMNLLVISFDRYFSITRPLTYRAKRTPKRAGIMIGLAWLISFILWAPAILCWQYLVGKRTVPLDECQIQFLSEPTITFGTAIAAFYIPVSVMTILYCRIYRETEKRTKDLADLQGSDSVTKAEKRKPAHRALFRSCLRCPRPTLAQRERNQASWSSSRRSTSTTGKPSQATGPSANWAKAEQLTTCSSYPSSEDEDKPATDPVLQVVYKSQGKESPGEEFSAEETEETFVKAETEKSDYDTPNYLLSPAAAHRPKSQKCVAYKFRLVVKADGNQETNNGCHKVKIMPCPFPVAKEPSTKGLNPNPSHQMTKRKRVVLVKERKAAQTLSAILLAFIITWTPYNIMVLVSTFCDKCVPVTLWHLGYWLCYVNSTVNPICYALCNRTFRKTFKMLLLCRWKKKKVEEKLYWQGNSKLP

Rattus norvegicus [16] = assay: Antidepressant-like activity in Wistar rat assessed as decrease in immobility time at 0.3 to 3 mg/kg, po after 60 mins by forced swimming test; type: functional; settings: dose mg/kg 0.3-3
[17] = biological target: T4, 5-hydroxytryptamine receptor 2A; assay: biochemical
Rattus norvegicus [18] = assay: Antipsychotic-like activity in po dosed Wistar rat assessed as inhibition of DOI-induced head twitches measured after 60 mins; type: functional; settings: 1 h, read-out: MED
[19] = biological target: Muscarinic acetylcholine receptor M2 (Homo sapiens) (UniProt P08172); assay: Displacement of [3H]AF-DX384 from human recombinant M2 receptor expressed in CHO cells at 1 uM; type: cell-based
D(3) dopamine receptor = D(3) dopamine receptor (Homo sapiens, UniProt P35462); assay: Displacement of [3H]methylspiperone from human recombinant D3 receptor expressed in CHO cells; type: cell-based
Sequence of D(3) dopamine receptor (P35462 whole entry): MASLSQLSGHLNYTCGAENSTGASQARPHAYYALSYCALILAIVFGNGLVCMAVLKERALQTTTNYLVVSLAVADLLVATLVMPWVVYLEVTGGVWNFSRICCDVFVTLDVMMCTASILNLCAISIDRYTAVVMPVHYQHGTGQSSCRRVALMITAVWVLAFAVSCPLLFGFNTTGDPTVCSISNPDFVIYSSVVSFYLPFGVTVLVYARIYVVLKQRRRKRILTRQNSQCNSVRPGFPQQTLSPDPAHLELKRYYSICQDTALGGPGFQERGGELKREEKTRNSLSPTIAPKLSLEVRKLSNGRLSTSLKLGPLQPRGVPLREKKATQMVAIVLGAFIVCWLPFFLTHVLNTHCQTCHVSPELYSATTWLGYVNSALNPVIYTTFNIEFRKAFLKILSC

[20] = biological target: T2, 5-hydroxytryptamine receptor 7; assay: biochemical
D(1A) dopamine receptor = D(1A) dopamine receptor (Homo sapiens, UniProt P21728); assay: biochemical
Rattus norvegicus [21] = assay: Induction of catalepsy in Wistar rat up to 100 mg/kg, po by bar test; type: organism-based; parameters: dose 100 mg/kg, route oral; settings: in vivo
D(4) dopamine receptor = D(4) dopamine receptor (Homo sapiens, UniProt P21917); assay: Displacement of [3H]methylspiperone from human recombinant D4 receptor expressed in CHO cells; type: cell-based
[22] = biological target: Alpha-2C adrenergic receptor (Homo sapiens, UniProt P18825); assay: biochemical
[23] = biological target: Muscarinic acetylcholine receptor M1 (Homo sapiens, UniProt P11229); assay: biochemical; type: cell-based, CHO
[24] = biological target: Muscarinic acetylcholine receptor M5 (Homo sapiens) (UniProt P08912); settings: CHO, 1 uM
Sequence of Muscarinic acetylcholine receptor M5 (Homo sapiens) (P08912 whole entry): as the sequence (P08912 whole entry) above

[25] = biological target: T6, Muscarinic acetylcholine receptor M3 (Homo sapiens, UniProt P20309); settings: CHO, 1 uM
[26] = biological target: T6, Muscarinic acetylcholine receptor M3; assay: biochemical
[27] = biological target: Muscarinic acetylcholine receptor M2 (Homo sapiens, UniProt P08172); assay: biochemical
[28] = biological target: Muscarinic acetylcholine receptor M4 (Homo sapiens) (UniProt P08173); assay: Displacement of [3H]4-DAMP from human recombinant M4 receptor expressed in CHO cells at 1 uM; type: cell-based
Sequence of Muscarinic acetylcholine receptor M4 (Homo sapiens) (P08173 whole entry): as the sequence (P08173 whole entry) above

[29] = biological target: T3, 5-hydroxytryptamine receptor 6
[30] = biological target: Alpha-1A adrenergic receptor (Homo sapiens, UniProt P35348); assay: biochemical
[31] = biological target: 5-hydroxytryptamine receptor 2C (Homo sapiens, UniProt P28335); assay: biochemical
Sequence of 5-hydroxytryptamine receptor 2C (P28335 whole entry): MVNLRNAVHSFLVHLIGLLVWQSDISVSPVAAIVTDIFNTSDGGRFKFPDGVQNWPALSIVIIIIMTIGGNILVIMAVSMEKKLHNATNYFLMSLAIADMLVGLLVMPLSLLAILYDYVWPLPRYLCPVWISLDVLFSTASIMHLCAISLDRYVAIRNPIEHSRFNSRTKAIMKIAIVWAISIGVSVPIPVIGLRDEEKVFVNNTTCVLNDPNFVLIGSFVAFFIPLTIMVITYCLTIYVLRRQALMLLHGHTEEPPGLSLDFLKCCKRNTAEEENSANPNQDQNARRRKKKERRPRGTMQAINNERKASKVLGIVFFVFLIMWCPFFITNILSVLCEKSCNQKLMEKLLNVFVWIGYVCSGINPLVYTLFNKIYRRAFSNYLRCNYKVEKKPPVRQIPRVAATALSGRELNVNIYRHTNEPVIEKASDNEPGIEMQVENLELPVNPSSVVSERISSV

Rattus norvegicus [32] = assay: Antipsychotic-like activity in po dosed Wistar rat assessed as inhibition of MK-801-induced hyperlocomotion administered 45 mins prior to MK-801 challenge measured 60 mins post-drug administration; type: functional; settings: read-out: MED
[33] = biological target: T4, 5-hydroxytryptamine receptor 2A; assay: Antagonist activity at human recombinant 5-HT2A receptor assessed as inhibition of serotonin-induced inositol phosphate accumulation; type: functional
[34] = biological target: Alpha-1A adrenergic receptor (Homo sapiens) (UniProt P35348); assay: Antagonist activity at human recombinant alpha1A adrenoceptor assessed as inhibition of epinephrine-induced intracellular Ca2+ release; type: functional, cell-based
[35] = biological target: Sodium-dependent serotonin transporter (Homo sapiens, UniProt P31645); assay: biochemical
[36] = biological target: 5-hydroxytryptamine receptor 1A (Homo sapiens, UniProt P08908); assay: biochemical
[37] = biological target: T3, 5-hydroxytryptamine receptor 6; assay: biochemical; remark: listed apart in the source
D(2) dopamine receptor [38] = biological target: T1, D(2) dopamine receptor; assay: biochemical; remark: listed apart in the source
Histamine H1 receptor = Histamine H1 receptor (Homo sapiens, UniProt P35367); assay: biochemical; type: cell-based, HEK293
Rattus norvegicus [39] = assay: Toxicity in Wistar rat assessed as spontaneous locomotor activity up to 100 mg/kg, po measured after 15 mins; type: organism-based; parameters: dose 100 mg/kg, route oral; settings: in vivo, 0.25 h

In the case of O=S(=O)(NCCCCN1CCN(c2noc3ccccc23)CC1)c1ccc2ccccc2c1, the Activity (D(2) dopamine receptor [1]) is reported as “inactive”, the Activity [2] is reported as “inactive” and the Ki [3] is reported as 6.2 nM. For the same molecule, the inhibition at 1 µM [4] was 0%, the Ki [5] was 0.8 nM and the Kb [6] was 11 nM. The Activity [7] was “inactive”, the Ki (D(2) dopamine receptor [8]) was 15 nM and the Ki [9] was 0.7 nM. The Activity [10] was “inactive”, the inhibition [11] was -3% and the Kb [12] was 11 nM. The Kb [13] was 9.2 nM.

O=S(=O)(NCCCCN1CCC(c2noc3cc(F)ccc23)CC1)c1cc2ccc(Cl)cc2s1 was tested, and the Activity (D(2) dopamine receptor [1]) was “inactive”, the Activity [2] was “inactive” and the Ki [3] was 3.3 nM. The inhibition at 1 µM [4] was 18%, the Ki [5] was 1.3 nM and the Kb [6] was 21 nM. For the same molecule, the Activity [7] was “inactive”, the Ki (D(2) dopamine receptor [8]) was 1.2 nM and the Ki [9] was 0.8 nM. The Activity [10] was “inactive”, the inhibition [11] was 23% and the Kb [12] was 55 nM. It also gave a Kb [13] of 2.8 nM.

O=S(=O)(NCCCN1CCC(c2noc3cc(F)ccc23)CC1)c1ccc(F)c(Cl)c1 was tested, and the Activity (D(2) dopamine receptor [1]) was “inactive”, the Activity [2] was “inactive” and the Ki [3] was 1.6 nM. The inhibition at 1 µM [4] was 32%, the Ki [5] was 0.9 nM and the Kb [6] was 7.4 nM. For the same molecule, the Activity [7] was “inactive”, the Ki (D(2) dopamine receptor [8]) was 3.7 nM and the Ki [9] was 1.5 nM. For the same molecule, the Activity [10] was “inactive”, the inhibition [11] was -8% and the Kb [12] was 7 nM. It also gave a Kb [13] of 0.8 nM.

In the case of O=S(=O)(NCCCCN1CCC(c2noc3cc(F)ccc23)CC1)c1cccc2ccccc12, the Activity (D(2) dopamine receptor [1]) is reported as “inactive”, the Activity [2] is reported as “inactive” and the Ki [3] is reported as 8.8 nM. It also gave an inhibition at 1 µM [4] of 24%, a Ki [5] of 0.8 nM and a Kb [6] of 17 nM. For the same molecule, the Activity [7] was “inactive”, the Ki (D(2) dopamine receptor [8]) was 3 nM and the Ki [9] was 0.6 nM. For the same molecule, the Activity [10] was “inactive”, the inhibition [11] was 0% and the Kb [12] was 76 nM. The Kb [13] was 3 nM.

With Cc1c(S(=O)(=O)NCCCCN2CCC(c3noc4cc(F)ccc34)CC2)sc2ccc(F)cc12 the Activity (D(2) dopamine receptor [1]) was “inactive”, the Activity [2] was “inactive” and the Ki [3] was 3.4 nM. The inhibition at 1 µM [4] was 14%, the Ki [5] was 0.2 nM and the Kb [6] was 14 nM. For the same molecule, the Activity [7] was “inactive”, the Ki (D(2) dopamine receptor [8]) was 1.9 nM and the Ki [9] was 0.7 nM. For the same molecule, the Activity [10] was “inactive”, the inhibition [11] was 22% and the Kb [12] was 5 nM. It also gave a Kb [13] of 2.2 nM.

In the case of O=S(=O)(NCCCCN1CCC(c2noc3cc(F)ccc23)CC1)c1cc2ccccc2s1, the Ki [14] is reported as > 1000 nM, the Ki [15] is reported as > 1000 nM and the “inhibition (INH)” value (Rattus norvegicus [16]) is reported as 20%. For the same molecule, the Ki [17] was 0.5 nM, the minimal effective dose (Rattus norvegicus [18]) was 3 mg/kg and the inhibition [19] was < 40%. The Activity (D(2) dopamine receptor [1]) was “inactive”, the Ki (D(3) dopamine receptor) was 1.1 nM and the Activity [2] was “inactive”. The Ki [20] was 1.9 nM, the Ki (D(1A) dopamine receptor) was 3.3 nM and the Activity (Rattus norvegicus [21]) was “Non-toxic”. For the same molecule, the Ki (D(4) dopamine receptor) was 14 nM, the Ki [22] was 1.9 nM and the Ki [23] was > 1000 nM. For the same molecule, the Ki [3] was 6.5 nM, the inhibition [24] was < 40% and the inhibition [25] was < 40%. For the same molecule, the Ki [26] was > 1000 nM, the Ki [27] was > 1000 nM and the inhibition [28] was < 40%. For the same molecule, the Kb [29] was 16 nM, the Ki [30] was 0.8 nM and the Ki [5] was 1.6 nM. The Ki [31] was 540 nM, the minimal effective dose (Rattus norvegicus [32]) was 10 mg/kg and the Kb [33] was 4.8 nM. For the same molecule, the Kb [6] was 9.9 nM, the Kb [34] was 1.8 nM and the Activity [7] was “inactive”. The IC50 [35] was > 1000 nM, the Ki [36] was 110 nM and the Ki (D(2) dopamine receptor [8]) was 2 nM. It also gave a Ki [37] of 4.1 nM, a Ki (D(2) dopamine receptor [38]) of 1.8 nM and a Ki [9] of 0.6 nM. For the same molecule, the Activity [10] was “inactive”, the Ki (Histamine H1 receptor) was 69 nM and the inhibition [11] was 21%. The Kb [12] was 8.8 nM, the Activity (Rattus norvegicus [39]) was “Non-toxic” and the Kb [13] was 7.8 nM.

With Cc1cccc(S(=O)(=O)NCCCN2CCC(c3noc4cc(F)ccc34)CC2)c1 the Activity (D(2) dopamine receptor [1]) was “inactive”, the Activity [2] was “inactive” and the Ki [3] was 13 nM. For the same molecule, the inhibition at 1 µM [4] was 52%, the Ki [5] was 0.6 nM and the Kb [6] was 2.5 nM. For the same molecule, the Activity [7] was “inactive”, the Ki (D(2) dopamine receptor [8]) was 16 nM and the Ki [9] was 3.7 nM. The Activity [10] was “inactive”, the inhibition [11] was 1% and the Kb [12] was 15 nM. It also gave a Kb [13] of 0.5 nM.

C[N+]1(C)CCC(OC(=O)C(c2ccccc2)c2ccccc2)CC1 [4-DAMP] was tested, and the Ki [15] was 0.48 nM.

With COc1cc(OC)c(C(=O)CCCCN2CCC3(CC2)NC(=O)NC3=O)cc1NS(=O)(=O)c1ccc(C(F)(F)F)cc1 [RS-102,221] the Ki [31] was 0.6 nM.

For O=S(=O)(NCCCCN1CCC(c2noc3cc(F)ccc23)CC1)c1ccc2ccccc2c1, the Activity (D(2) dopamine receptor [1]) was “inactive”, the Activity [2] was “inactive” and the Ki [3] was 2.4 nM. The inhibition at 1 µM [4] was 30%, the Ki [5] was 1.4 nM and the Kb [6] was 3.8 nM. For the same molecule, the Activity [7] was “inactive”, the Ki (D(2) dopamine receptor [8]) was 1.1 nM and the Ki [9] was 1.7 nM. For the same molecule, the Activity [10] was “inactive”, the inhibition [11] was 0% and the Kb [12] was 14 nM. The Kb [13] was 8.8 nM.
